Drawing on US8524906B2, “Tetrahydrothiazolopyridine inhibitors of phosphatidylinositol 3-kinase” (Vertex Pharmaceuticals Incorporated, priority 2009, dated 2013), this text covers Ki for 25 compounds.

The Ki is the dissociation constant of the complex between target and ligand, obtained from inhibition or displacement.

Several values for one entry are separate records, joined by “and”; a condition that tells them apart may be missing. Equal values may be shown once.

Chain of PI3Kγ (P48736 whole entry, species assumed, canonical isoform): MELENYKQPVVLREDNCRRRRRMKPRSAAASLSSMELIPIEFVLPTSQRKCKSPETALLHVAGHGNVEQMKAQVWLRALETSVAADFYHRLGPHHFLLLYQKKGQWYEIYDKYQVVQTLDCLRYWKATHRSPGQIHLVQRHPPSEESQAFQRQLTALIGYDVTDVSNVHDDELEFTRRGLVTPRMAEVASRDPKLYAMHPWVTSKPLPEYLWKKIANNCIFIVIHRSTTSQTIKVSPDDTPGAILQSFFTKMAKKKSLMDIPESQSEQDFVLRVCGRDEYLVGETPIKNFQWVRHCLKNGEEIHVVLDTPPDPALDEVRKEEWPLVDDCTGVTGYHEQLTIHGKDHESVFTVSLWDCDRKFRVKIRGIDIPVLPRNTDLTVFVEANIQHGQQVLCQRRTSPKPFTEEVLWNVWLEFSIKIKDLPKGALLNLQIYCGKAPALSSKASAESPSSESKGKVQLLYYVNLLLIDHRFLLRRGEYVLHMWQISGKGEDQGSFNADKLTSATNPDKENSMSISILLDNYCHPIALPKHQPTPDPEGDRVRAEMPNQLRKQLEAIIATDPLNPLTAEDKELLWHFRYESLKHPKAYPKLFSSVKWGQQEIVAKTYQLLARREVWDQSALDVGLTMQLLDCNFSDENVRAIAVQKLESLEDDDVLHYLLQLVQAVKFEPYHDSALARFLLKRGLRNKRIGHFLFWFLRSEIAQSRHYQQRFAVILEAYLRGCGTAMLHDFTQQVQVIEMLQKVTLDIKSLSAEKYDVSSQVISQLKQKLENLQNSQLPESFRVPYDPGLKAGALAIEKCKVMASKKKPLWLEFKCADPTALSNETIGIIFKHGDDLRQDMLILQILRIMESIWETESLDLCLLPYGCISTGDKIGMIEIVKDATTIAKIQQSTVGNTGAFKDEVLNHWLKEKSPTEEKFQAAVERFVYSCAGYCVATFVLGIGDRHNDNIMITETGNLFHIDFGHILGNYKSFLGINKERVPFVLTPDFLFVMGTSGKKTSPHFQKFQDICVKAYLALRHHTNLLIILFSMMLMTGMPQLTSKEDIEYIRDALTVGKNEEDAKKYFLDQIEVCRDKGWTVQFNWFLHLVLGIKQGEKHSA

One experiment concerns the target PI3Kγ (Homo sapiens, UniProt P48736). Put plainly: PI3K Inhibition Assay (33P-ATP, PI(4,5)P2 substrate, filter plate scintillation counting). It counts as biochemical. To be noted: 3 μM ATP, 30 μM PI(4,5)P2, 2 nM final enzyme, 30 min at 25° C.; competitive tight binding Ki fit; read-out: Ki for PI3Kγ. How it is done: One test well also contained 1.5 μL of DMSO with no compound. […] Using a Titertek Multidrop, 50 μL of Reaction Mix [100 mM HEPES pH 7.5, 50 mM NaCl, 10 mM DTT, 0.2 mg/mL BSA, 60 μM phosphatidylinositol(4,5)-bisphosphate diC16 (PI(4,5)P2; Avanti Polar Lipids, Cat. No. 840046P) and PI3K isoform of interest (see Table 3 for isoform concentrations)] was added to each well. To initiate the reaction, 50 μL of ATP Mix [20 mM MgCl2, 6 μM ATP (100 μCi/μmole ^33P-ATP)] was added each well, followed by incubating the wells for 30 min. at 25° C. Final concentrations in each well were 50 mM HEPES 7.5, 10 mM MgCl2, 25 mM NaCl, 5 mM DTT, 0.1 mg/mL BSA, 30 μM PI(4,5)P2, 3 μM ATP, and the PI3K isoform of interest (see Table 3). Final compound concentrations in each well ranged from 10 μM to 1 nM.
After incubation, the reactions in each well were quenched by addition of 50 μL of stop solution [30% TCA/Water, 10 mM ATP]. […] 50 μL of scintillation fluid was added to each well and the plate read on a Perkin-Elmer TopCount™ NXT liquid scintillation counter to obtain ^33P-counts representing inhibition values.
The value for the background well was subtracted from the value obtained for each test well and the data were fit to the competitive tight binding Ki equation described by Morrison and Stone, Comments Mol. Cell Biophys.
On to `COCC(=O)Nc1nc2c(s1)CN(c1cncc(OC)c1)CC2` [Compound 4], for which the Ki was under 100 nM.

In the case of `CCNC(=O)Nc1nc2c(s1)CN(c1cncc(C(F)(F)F)c1)CC2` [Compound 6], the Ki is under 100 nM.

As for `CC(=O)Nc1nc2c(s1)CN(c1cncc(C(F)(F)F)c1)CC2` [Compound 7], the inhibition constant Ki was under 100 nM.

On to `COCC(=O)Nc1nc2c(s1)CN(c1cncc(C(F)(F)F)c1)CC2` [Compound 8], for which the Ki is under 100 nM.

In the case of `CCNC(=O)Nc1nc2c(s1)CN(c1cnc(OC)c(OC)c1)CC2` [Compound 10], the inhibitory constant (Ki) is under 100 nM.

Regarding `CCCOCCNC(=O)Nc1nc2c(s1)CN(c1cncc(C(F)(F)F)c1)CC2` [Compound 12], the Ki was under 20 nM.

Consider `COc1ncc(N2CCc3nc(NC(C)=O)sc3C2)nc1OC` [Compound 14, N-(4,5,6,7-tetrahydro-5-(5,6-dimethoxypyrazin-2-yl)thiazolo[5,4-c]pyridin-2-yl)acetamide], for which the Ki was under 20 nM.

`COc1cc(N2CCc3nc(NC=O)sc3C2)cnc1OC` [Compound 15]: the Ki was under 100 nM.

Consider `CCCOCCNC(=O)Nc1nc2c(s1)CN(c1cnc(OC)c(OC)c1)CC2` [Compound 16], for which the inhibition constant Ki was under 100 nM.

Regarding `CC(=O)Nc1nc2c(s1)CN(c1cncc(C(F)(F)F)n1)CC2` [Compound 17], the Ki is under 100 nM.

As for `COc1cncc(N2CCc3nc(Nc4cnccn4)sc3C2)c1` [Compound 18, 4,5,6,7-tetrahydro-5-(5-methoxypyridin-3-yl)-N-(pyrazin-2-yl)thiazolo[5,4-c]pyridin-2-amine], the Ki was under 100 nM.

Consider `COc1cc(N2CCc3nc(NC(=O)CCNC(=O)c4ccccn4)sc3C2)cnc1OC` [Compound 32], for which the Ki was under 100 nM.

`COc1cc(N2CCc3nc(NC(=O)CNC(=O)c4ccccn4)sc3C2)cnc1OC` [Compound 33]: the Ki was under 100 nM.

With `CCOC(=O)CCCNC(=O)Nc1nc2c(s1)CN(c1cnc(Cl)c(OC)c1)CC2` [Compound 34], the Ki is under 100 nM.

On to `COCCNC(=O)Nc1nc2c(s1)CN(c1cnc(Cl)c(OC)c1)CC2` [Compound 35], for which the Ki is under 100 nM.

Take `COc1cc(N2CCc3nc(NC(=O)NCCCN(C)C)sc3C2)cnc1Cl` [Compound 37]: the Ki was under 100 nM.

As to `COc1cc(N2CCc3nc(NC(=O)NCCc4cn(CCF)cn4)sc3C2)cnc1Cl` [Compound 38], the Ki is under 100 nM.

As for `CCOCCCNC(=O)Nc1nc2c(s1)CN(c1cnc(Cl)c(OC)c1)CC2` [Compound 39], the Ki is under 100 nM.

Regarding `COc1cc(N2CCc3nc(NC(=O)CCNC(C)=O)sc3C2)cnc1Cl` [Compound 44], the Ki is under 100 nM.

Turning to `COc1cc(N2CCc3nc(NC(=O)NCCCO)sc3C2)cnc1Cl` [Compound 50], the Ki was under 100 nM.

Take `COc1cc(N2CCc3nc(NC(=O)N4CC(OC)C4)sc3C2)cnc1Cl` [Compound 51]: the Ki was under 100 nM.

Consider `CCOC(=O)CCNC(=O)Nc1nc2c(s1)CN(c1cnc(Cl)c(OC)c1)CC2` [Compound 52], for which the Ki is < 20 nM and 3 nM and < 100 nM.

On to `COc1cc(N2CCc3nc(NC(=O)N4CCCC4)sc3C2)cnc1Cl` [Compound 57], for which the Ki is under 100 nM.

Still in this experiment, the particulars now being: Ki for PI3Kγ, 3 μM ATP, 30 μM PI(4,5)P2, 2 nM final enzyme, 30 min at 25° C.; competitive tight binding Ki fit.
The compound `COc1cc(N2CCc3nc(NC(=O)NCCCl)sc3C2)cnc1OC` [Compound 11] displayed an inhibitory constant (Ki) of under 100 nM.

`COc1cncc(N2CCc3nc(NC(=O)CF)sc3C2)c1` [Compound 19] registered an inhibition constant Ki of under 100 nM.
